Assay [1] has as its system STE-1 cells. As to the kind of experiment: caspase-3 activity reporter (Nucview) in STE-1. Type of assay: cell-based. The settings on record: for killing over untreated cells, single agent: 24 hr. The protocol: (§1) FIG. 6C depicts the quantification of death in STE-1 cells following 24 hrs of inhibitor treatment. FIG. 6D depicts the number of Erk pulses in cells that died (“D”) and cells that lived (“L”) during 24 hrs of inhibitor treatment. FIG. 6E depicts the percentage of caspase-3+ STE-1 and H3122 cells following 24 hrs of inhibitor treatment.
Percent of Caspase-3 positive cells assessed using NucView 488 afterfive days of treatment with the indicated inhibitors: Alecitinib 1 μM, Erlotinib 1 μM, Marimastat 10 μM.

Assay [2] relates to Erk activity, STE-1 cells. Kind of assay: live cell imaging of Erk kinase translocation reporter (ErkKTR). The format is cell-based. The settings on record: for effect on ErkKTR: Erk activity and reactivation pulses: crizotinib 1 μM, erlotinib 1 μM, marimastat 10 μM. The protocol:
(§2) Error bars represent 95% confidence intervals. […] FIG. 4I depicts the comparison of EGR1 expression after 6 hr of inhibitor treatment. […] FIG. 5B is the schematic of spatial analysis of Erk signaling in relation to dying cells. Cells within a 32 μm radius of a dying cell were considered neighbors of the dying cell, whereas all other cells were non-neighbors. Neighbors/non-neighbors were identified and tracked for 50 min before the death event, and Erk actvity in these cells was quantified. FIG. 5C depicts the quantification of Erk activity pulses in neighbors (“N”) or non-neighbors (“R”) of each cell-death event in the indicated conditions.
To further understand Erk reactivation, the present study observed Erk activity using live cell imaging of the Erk kinase translocation reporter (ErkKTR) in STE-1 cells (FIG. 4A). ErkKTR is a fluorescence reporter whose localization corresponds with Erk activity: the nuclear localization of ErkKTR indicates low activity of Erk while the cytoplasmic localization indicates high activity of Erk.

For assay [3], the system named is H3122 cells. As to the kind of experiment: caspase-3 activity reporter (Nucview) in H3122. Type of assay: cell-based. To be noted: for killing over untreated cells, single agent: 24 hr.
Text: as §1

Assay [4] relates to Erk activity, STE-1 cells. As to the method:
as §2
The present study next sought to determine the source of the paracrine signals. […] Signal activation near dying cells was quantified by first identifying the time and location of each cell death event. All cells that were within a 100-pixel radius (˜32 μm, or about a 2-cell radius) of the dying cell for the 50 minutes preceding death were then identified. The present study refers to these as the “neighbors” of the dying cell (FIG. 5B). The present study then counted Erk pulses in the neighbors of a death event and compared to Erk pulses from a randomly selected subset of non-neighbors over that same time interval.

Assay [5] relates to ppErk, H3122 cells. As to the kind of experiment: EGF-induced ppErk induction in H3122 cells. The format is cell-based. To be noted: 100 ng/mL EGF, pre-treatment 1 μM.
Text: Data points represent mean single cell ppErk intensity of three replicates.
(§3) To determine whether such negative regulation could be observed in the context of native epidermal growth factor receptor (EGFR) signaling, the present study measured ppErk induction upon addition of epidermal growth factor (EGF) in STE-1 and H3122 cells, two NSCLC cell lines driven by EML4-ALK(V1) (FIG. 2A).
(§4) To determine whether the mechanism was predominantly transcriptional or post-translational, the required duration of ALKi pre-incubation to observe an increase in dynamic range was examined. both STE-1 and H3122 cells were preincubated with varying durations of ALK inhibition, and ppErk levels in response to 15 min of EGF stimulation was analyzed.
For assay [6], the system named is ppErk, STE-1 cells expressing optoFGFR. As to the kind of experiment: functional profiling: optoFGFR blue light stimulation, single-cell ppErk immunofluorescence. Type of assay: cell-based. To be noted: STE-1 optoFGFR. An excerpt: FIG. 1A illustrates that EML4-ALK+ cancer cells treated with ALK specific tyrosine kinase inhibitor (TKI) often result in a population of persistent/tolerant cells that later develop into resistant colonies. […] FIG. 1C, left panel, illustrates that transmembrane RTK and EML4-ALK protein granules both signal through the same adapter proteins and downstream pathways like Ras/Erk. FIG. 1C, right panel, illustrates the functional profiling method used in determining the extent to which EML4-ALK expression or its inhibition alter signal transmission in cancer cells. FIG. 1D illustrates that optoFGFR allows for blue light stimulation of RTK (optoFGFR) signal transduction. […] FIG. 1F depicts the normalized ppErk fold-change in response to 5 min of blue light stimulation. Blue light intensity ranged from 2% to 60% of maximum (1.45 W/cm^2). Datapoints show mean single-cell ppErk intensity from three replicates.
A method called functional profiling that allows the measurement of how oncogenes and targeted therapies can alter signal transmission was developed. In functional profiling, light-activated ‘optogenetic’ signaling stimuli are apply at specific nodes of a signaling pathway and downstream signals, transcription, and cell fate as a function of oncogene or drug status are observe.
To determine whether EML4-ALK could alter RTK signal transmission properties, a light-sensitive fibroblast growth factor receptor (optoFGFR) was expressed in the STE-1 cancer cell line, which is driven by the EML4-ALK(V1) oncogene. The present study observed signal transmission by applying blue light stimuli and measuring single-cell phospho-Erk levels single-cell immunofluorescence (FIG. 1D). In STE-1 cells, optoFGFR induced only mild double-phosphorylated Erk (ppErk) signal increase above the high basal ppErk levels attributed to active EML4-ALK (FIG. 1E, top). […] Signal dynamic range increased due to lowering of tonic Erk activity from ALK, as well as from an increase in the maximum signal achievable relative to untreated cells. […]

The subject of assay [7] is ppErk, STE-1 cells. Kind of assay: EGF-induced ppErk induction in STE-1 cells. To be noted: 100 ng/mL EGF, pre-treatment 1 μM.
Method: Data points represent mean single cell ppErk intensity of three replicates. FIG. 2C depicts the quantification of dynamic range of ppErk induction from experiment in 2C performed over a range of EGF concentrations. […] FIG. 2E depicts the ppErk immunofluoresence intensity response to 50 ng/mL EGF stimulation.
as §3, §4
In assay [8] the test system is ppErk, STE-1 and H3122 cancer cells. As to the kind of experiment: single-cell ppErk levels as a function of treatment duration. Type of assay: cell-based. To be noted: serum-starved. The source says:
The present study sought to understand whether relief of EGFR inhibition by EML4-ALK might lead to Erk reactivation in STE-1 and H3122 cancer cells. […] The present study thus further examined Erk reactivation under ALK inhibition combined with marimastat, an inhibitor for matrix metalloproteases that are required for shedding EGF family ligands prior to paracrine signaling.

For assay [9], the system named is EGR1, STE-1 cells. Kind of assay: EGR1 expression in individual cells after drug treatment. The format is cell-based. As to the method: as §2
Assay [10] has as its system STE-1 cells. Kind of assay: cell death in cells imaged over 24 hrs. Type of assay: cell-based.

The record followed here is patent publication US20230101403A1, “METHOD OF TREATING OR AMELIORATING CANCERS DRIVEN BY RECEPTOR TYROSINE KINASE FUSION ONCOGENES, AND COMPOSITIONS FOR THE SAME” (THE TRUSTEES OF THE UNIVERSITY OF PENNSYLVANIA, priority 2021, published 2023).

`C#Cc1cccc(Nc2ncnc3cc(OCCOC)c(OCCOC)cc23)c1` [erlotinib]: the “killing over untreated cells, single agent” value in assay [1] and in assay [3] was “Neither erlotinib or marimastat treatment alone showed enhanced killing over untreated cells” in each case. For the same molecule, the “effect on ErkKTR: Erk activity and reactivation pulses” value in [2] is listed as “no obvious effect on ErkKTR”.

In the case of `CNC(=O)[C@@H](NC(=O)[C@H](CC(C)C)[C@H](O)C(=O)NO)C(C)(C)C` [marimastat], the “killing over untreated cells, single agent” value in assay [1] and in [3] was “Neither erlotinib or marimastat treatment alone showed enhanced killing over untreated cells” each time. Also, in assay [2], the “effect on ErkKTR: Erk activity and reactivation pulses” value is given as “no obvious effect on ErkKTR”.

For the molecule `C[C@@H](Oc1cc(-c2cnn(C3CCNCC3)c2)cnc1N)c1c(Cl)ccc(F)c1Cl` [crizotinib], the “median Erk pulses per cell, neighbors of a death” value in assay [4] (50 minutes preceding death, within ~32 μm) turned out to be 0.23 pulses per cell. The “proportion of neighbor cells with at least 1 pulse preceding a death event” value in assay [4] (neighbors) is 60%. In assay [4] (non-neighbors), the “proportion of non-neighbor cells with at least 1 pulse preceding a death event” value worked out at 20%. Also, the “ppErk dynamic range in response to EGF” value in [5] and in [7] was “dramatic increase in ppErk dynamic range” throughout. Moreover, the caspase-3-positive cell fraction in [1] (first 24 hr of treatment) came to 25%; in [3] (first 24 hr of treatment), 5%. For the same molecule, in [6] (blue light, pre-treatment 1 μM), the “dynamic range of signal induction (ppErk)” value is approximately 18 fold. In addition, in assay [6] (1 μM), the “light stimulation at which increase of dynamic range could be observed” value is given as ≤ 5 % maximal light stimulation. For the same molecule, in assay [6] (1 μM, highest levels of light stimulation), the “dynamic range plateau (induction) at the highest light levels” value was approximately 25 fold. Moreover, the “ErkKTR localization upon treatment” value in assay [2] (1 μM) is recorded as “induced rapid nuclear translocation of ErkKTR in all cells”. The “time to reappearance of ERK-hi cells” value in [8] is not above 1 h. For the same molecule, the “time within which mean Erk levels decreased dramatically” value in assay [8] is not above 10 min. In addition, the “time EGR1 levels remained low” value in assay [9] is listed as “at least 2 hrs”. Further, the “EGR1 expression (EGR1-high population)” value in [9] (crizotinib 1 μM, erlotinib 1 μM) was “a distinct peak of EGR1-high cells appeared and grew at 4 and 6 hrs after drug treatment”. In [10] (24 hrs), the “Erk pulses in surviving cells compared to cells that died” value is listed as “surviving cells showed an increased number of Erk pulses compared to cells that died”. In assay [10] (imaged over 24 hrs), the “cell death, % of cells analyzed” value is recorded as approximately 40%.
